Experimental data: ChEMBL document CHEMBL1201862, “PubChem BioAssay data set” (2004)
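Values below derive from 48-hour exposures of cells grown in 96-well plates, with endpoints linearly interpolated between the two concentrations bracketing the appropriate inhibition level. Abbreviation: GI50, concentration required for 50% inhibition of growth.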 Active and inactive are the calls of the source. Cut-off read from the data, not from the text of the source: active = GI50 up to about 1.1 µM and inactive = higher.

Experiments:
Assay in all cases: inhibition of tumour cell growth, NCI panel, 48 h
LOX IMVI = system: LOX IMVI
SF-295 = system: SF-295
SN12C = system: SN12C
TK-10 = system: TK-10
SF-268 = system: SF-268
Hs-578T = system: Hs-578T
ACHN = system: ACHN
NCI-H460 = system: NCI-H460
OVCAR-4 = system: OVCAR-4
NCI-H522 = system: NCI-H522
A498 = system: A498
NCI/ADR-RES = system: NCI/ADR-RES
786-0 = system: 786-0
BT-549 = system: BT-549
K562 = system: K562
CAKI-1 = system: CAKI-1
MCF7 = system: MCF7
NCI-H226 = system: NCI-H226
U-251 = system: U-251
SK-OV-3 = system: SK-OV-3

Measured: GI50

Cc1cccc(-n2c(C)nc3ccc(NC(=S)Nc4ccccc4)cc3c2=O)c1
inactive: LOX IMVI 37.2 µM | SF-295 > 100 µM | SN12C > 100 µM | TK-10 > 100 µM | SF-268 66.5 µM | Hs-578T > 100 µM | ACHN 53.5 µM | NCI-H460 11 µM | OVCAR-4 60.8 µM | NCI-H522 51.2 µM | A498 > 100 µM | NCI/ADR-RES 84.1 µM | 786-0 > 100 µM | BT-549 48.5 µM | K562 50.1 µM | CAKI-1 > 100 µM | MCF7 67 µM | NCI-H226 81.1 µM | U-251 > 100 µM

C=C(C)C1Cc2cc(C(C)=O)ccc2O1 (centres undefined)
inactive: LOX IMVI > 100 µM | SF-295 > 100 µM | SN12C > 100 µM | TK-10 > 100 µM | SF-268 > 100 µM | Hs-578T > 100 µM | ACHN > 100 µM | NCI-H460 > 100 µM | SK-OV-3 > 100 µM | OVCAR-4 > 100 µM | NCI-H522 > 100 µM | NCI/ADR-RES > 100 µM | 786-0 > 100 µM | BT-549 > 100 µM | K562 > 100 µM | CAKI-1 > 100 µM | MCF7 > 100 µM | NCI-H226 > 100 µM | U-251 > 100 µM

CCn1c(-c2ccc(F)cc2)nc2c1C(=O)c1ccccc1C2=O
inactive: SF-295 > 100 µM | SN12C > 100 µM | TK-10 > 100 µM | SF-268 > 100 µM | Hs-578T > 100 µM | ACHN > 100 µM | NCI-H460 > 100 µM | SK-OV-3 20.7 µM | OVCAR-4 > 100 µM | NCI-H522 > 100 µM | NCI/ADR-RES > 100 µM | 786-0 > 100 µM | BT-549 > 100 µM | K562 > 100 µM | MCF7 > 100 µM | NCI-H226 91 µM | U-251 > 100 µM

CCOC(=O)c1cc(C2(OC)CCN(Cc3ccccc3)C2=O)c(-c2cc(C)no2)[nH]1 (centres undefined)
inactive: SF-295 > 100 µM | TK-10 > 100 µM | SF-268 > 100 µM | Hs-578T > 100 µM | ACHN > 100 µM | NCI-H460 82.4 µM | SK-OV-3 > 100 µM | OVCAR-4 > 100 µM | NCI-H522 > 100 µM | A498 > 100 µM | NCI/ADR-RES > 100 µM | 786-0 > 100 µM | BT-549 > 100 µM | K562 > 100 µM | CAKI-1 > 100 µM | MCF7 94.6 µM | U-251 > 100 µM

CSC1=N[C@H](c2ccccc2)CS1
inactive: SF-295 > 100 µM | SN12C > 100 µM | TK-10 > 100 µM | Hs-578T > 100 µM | ACHN > 100 µM | NCI-H460 > 100 µM | OVCAR-4 > 100 µM | A498 > 100 µM | NCI/ADR-RES > 100 µM | 786-0 > 100 µM | BT-549 > 100 µM | K562 > 100 µM | CAKI-1 > 100 µM | MCF7 > 100 µM | U-251 > 100 µM

Oc1ccc[nH]c1=[Se]
inactive: LOX IMVI 64.6 µM | SF-295 29.3 µM | SN12C 48.2 µM | TK-10 55.3 µM | SF-268 76.2 µM | Hs-578T > 100 µM | ACHN 48.6 µM | NCI-H460 41.8 µM | SK-OV-3 87.1 µM | NCI-H522 29.6 µM | NCI/ADR-RES 55.1 µM | 786-0 16 µM | BT-549 55.1 µM | K562 36.2 µM | CAKI-1 69.7 µM | MCF7 65.5 µM | NCI-H226 > 100 µM | U-251 32.7 µM

Cc1ccccc1S(=O)(=O)Nn1cnc2ccc(S(=O)(=O)Nc3ccc(Cl)cc3)cc2c1=O
inactive: LOX IMVI > 100 µM | SF-295 48.4 µM | SN12C > 100 µM | TK-10 > 100 µM | SF-268 > 100 µM | Hs-578T 28.8 µM | ACHN > 100 µM | NCI-H460 > 100 µM | SK-OV-3 > 100 µM | OVCAR-4 > 100 µM | NCI-H522 > 100 µM | NCI/ADR-RES > 100 µM | 786-0 > 100 µM | BT-549 > 100 µM | K562 10 µM | CAKI-1 > 100 µM | MCF7 > 100 µM | NCI-H226 > 100 µM | U-251 > 100 µM

CCCCNC(=O)OCCN=c1c2ccccc2ccc2ccccc12
inactive: LOX IMVI > 100 µM | SF-295 > 100 µM | SN12C > 100 µM | TK-10 > 100 µM | SF-268 > 100 µM | Hs-578T > 100 µM | ACHN > 100 µM | NCI-H460 > 100 µM | SK-OV-3 > 100 µM | OVCAR-4 > 100 µM | NCI/ADR-RES > 100 µM | 786-0 > 100 µM | BT-549 > 100 µM | K562 > 100 µM | CAKI-1 > 100 µM | MCF7 > 100 µM | NCI-H226 > 100 µM | U-251 > 100 µM

Cc1ccc(C(=O)Nc2ccc(S(=O)(=O)O)c3cc(S(=O)(=O)O)cc(S(=O)(=O)O)c23)cc1NC(=O)c1cccc(N)c1
inactive: SF-295 > 100 µM | SN12C > 100 µM | TK-10 > 100 µM | SF-268 > 100 µM | Hs-578T > 100 µM | ACHN > 100 µM | NCI-H460 > 100 µM | SK-OV-3 > 100 µM | OVCAR-4 > 100 µM | NCI-H522 > 100 µM | A498 > 100 µM | NCI/ADR-RES > 100 µM | 786-0 > 100 µM | BT-549 > 100 µM | K562 > 100 µM | CAKI-1 > 100 µM | MCF7 > 100 µM | NCI-H226 > 100 µM | U-251 > 100 µM

C=CC[C@]12C=C(OC)[C@@H](O)[C@](OC)(C(c3cc(OC)c4c(c3)OCO4)[C@H]1C)[C@H]2OC(C)=O (some centres undefined)
inactive: SF-295 > 100 µM | SN12C > 100 µM | TK-10 > 100 µM | SF-268 8.34 µM | Hs-578T 22.6 µM | ACHN > 100 µM | NCI-H460 > 100 µM | SK-OV-3 61.1 µM | OVCAR-4 69.2 µM | NCI-H522 > 100 µM | A498 > 100 µM | NCI/ADR-RES > 100 µM | 786-0 > 100 µM | BT-549 > 100 µM | K562 > 100 µM | CAKI-1 > 100 µM | MCF7 > 100 µM | NCI-H226 > 100 µM | U-251 > 100 µM

O=C(O)[C@@H]1C[C@@H](O)CN1
inactive: LOX IMVI > 100 µM | SF-295 > 100 µM | SN12C > 100 µM | TK-10 > 100 µM | SF-268 > 100 µM | Hs-578T > 100 µM | ACHN > 100 µM | NCI-H460 > 100 µM | SK-OV-3 > 100 µM | OVCAR-4 > 100 µM | A498 > 100 µM | NCI/ADR-RES > 100 µM | 786-0 > 100 µM | BT-549 > 100 µM | K562 > 100 µM | CAKI-1 > 100 µM | MCF7 > 100 µM | NCI-H226 > 100 µM | U-251 > 100 µM
